Data set [1] has as its system isolated neonatal microglial cells. The data set is described as follows: IL-1β mRNA expression in isolated neonatal microglial cell culture. As to conditions: neonatal microglia; (+)-naloxone 1, 10, 100 µM co-treatment.
The subject of data set [2] is IL-1β mRNA in VTA, NAc, vmPFC. The data set is described as follows: IL-1β mRNA in brain micro-punches after systemic drug. The following applies: (+)-naloxone […] s.c. twice; 30 min and 2 h after cocaine 10 mg/kg. The format is in vivo, rat.
The format of data set [3] is in vivo, rat. As to conditions: pretreatment […] s.c. twice; cocaine 10 mg/kg i.p.; hippocampus.
Data set [4] concerns extracellular dopamine in the NAc. Kind of data set: In vivo microdialysis of NAc shell dopamine. The following applies: for effect on basal NAc dopamine levels: antagonist alone; for effect on intra-VTA neurotensin-induced elevation of NAc dopamine: control for non-specific disruption of neuronal responsiveness; for extracellular NAc dopamine, compound alone: cocaine 10 mg/kg systemic, neurotensin 10 nMol or LPS 10 ng intra-VTA; for increase of NAc dopamine concentrations: intra-VTA LPS vs systemic cocaine. Further details: species or system rat.

The subject of data set [5] is cocaine conditioned place preference. Kind of data set: Conditioned place preference. Format: in vivo, rat. As to conditions: tested drug-free; cocaine 10 mg/kg i.p.
For data set [6], the system named is cocaine self-administration. The data set is described as follows: Rat self-administration. The format is in vivo. The following applies: pre-session (+)-naltrexone s.c.
The target of data set [7] is T1, MD-2 (Homo sapiens, UniProt Q9Y6Y9).
T1 sequence (Q9Y6Y9 19-160): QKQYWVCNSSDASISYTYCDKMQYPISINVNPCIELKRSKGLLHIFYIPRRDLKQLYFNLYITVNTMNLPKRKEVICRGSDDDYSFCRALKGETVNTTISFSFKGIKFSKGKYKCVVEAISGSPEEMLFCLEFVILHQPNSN
Kind of data set: Biophysical ELISA binding assays. For orientation: ELISA stands for enzyme-linked immunosorbent assay.

In data set [8] the target is T1, MD-2. Kind of data set: Bis-ANS displacement assay. The format is binding.

The values below come from PMC4523496 (Molecular psychiatry, 2015).

Regarding `C=CCN1CC[C@]23c4c5ccc(O)c4O[C@H]2C(=O)CC[C@]3(O)[C@H]1C5` [(+)-Naloxone], the “effect on cocaine-induced upregulation of IL-1β mRNA” value in data set [1] was “blocked”. Further, the “effect on cocaine-induced increases of intra-VTA IL1β mRNA” value in data set [2] is listed as “blocked”. Further, in data set [3], the “effect on brain cocaine concentrations” value is recorded as “not altered”. In data set [4], the “effect on basal NAc dopamine levels” value was “did not influence basal dopamine levels” and the “effect on intra-VTA neurotensin-induced elevation of NAc dopamine” value is given as “unaltered”. For the same compound, the “conditioned place preference, compound alone” value (“conditioned place preference” for short) in data set [5] is given as “produced no appetitive or aversive CPP”.
`O=C1CC[C@]2(O)[C@@H]3Cc4ccc(O)c5c4[C@]2(CCN3CC2CC2)[C@@H]1O5` [(+)-naltrexone]: in data set [6], the “effect on food-maintained responding” value was “failed to suppress responding to food”. Further, the “effect on responding for cocaine (self-administration)” value in data set [6] (fixed-ratio dose-response) is “suppressed responding for cocaine at the peak cocaine doses”.
A word on the Ki: it is a dissociation constant, usually derived from enzyme kinetics or from competition with a known ligand. Low values mean tighter binding, high ones weaker binding. Turning to `COC(=O)[C@H]1[C@@H](OC(=O)c2ccccc2)C[C@@H]2CC[C@H]1N2C` [Cocaine], in data set [4], the “extracellular NAc dopamine, compound alone” value (“extracellular NAc dopamine” for short) is reported as “robust increases in extracellular NAc dopamine” and the “increase of NAc dopamine concentrations” value is reported as 300%. Moreover, the “conditioned place preference” value in data set [5] was “produces place preference”. In addition, the “binding to human MD-2 (ELISA)” value in data set [7] (aptamer-immobilized cocaine) is listed as “bound to human MD-2 in a concentration-dependent manner”. The compound also gave an inhibition constant Ki in data set [8] of 23.9 ± 5.9 µM.
As for `CN(C)c1ccc(O)c2c1C[C@H]1C[C@H]3[C@H](N(C)C)C(O)=C(C(N)=O)C(=O)[C@@]3(O)C(O)=C1C2=O` [minocycline], the “conditioned place preference” value in data set [5] is given as “neither water nor minocycline altered place preference”.
As to IL1ra: IL-1 receptor antagonist, in data set [4], the “effect on basal NAc dopamine levels” value was “did not alter basal DA levels in the NAc” and the “effect on intra-VTA neurotensin-induced elevation of NAc dopamine” value is listed as “did not alter neurotensin-induced dopamine elevations in the NAc”.
Consider lipopolysaccharide [LPS], for which, in data set [4], the “extracellular NAc dopamine” value was “increased” and the “increase of NAc dopamine concentrations” value was below 200%. The “competition with cocaine for binding to MD-2 (ELISA)” value in data set [7] (varying concentrations of LPS added) is given as “displaced cocaine binding to MD-2”.
Turning to neurotensin, the “extracellular NAc dopamine” value in data set [4] is “induced increased NAc dopamine”.
